Publication PMC3510080, “Identification of Compounds with Anti-Proliferative Activity against Trypanosoma brucei brucei Strain 427 by a Whole Cell Viability Based HTS Campaign” (PLoS Neglected Tropical Diseases, 2012)
Converted amounts (≈) assume the structure as drawn. “And” between values parts separate entries of the source, which are not always exact repeats. Identical values can stand only once. Like-named read-outs stand apart in the source and are kept apart here.

How the values were obtained:
Type in all cases: cell-based, Trypanosoma brucei brucei
[1] = system: T.b. brucei bloodstream form lister 427; test: T.b. brucei Alamar Blue viability estimation assay (384-well HTS, retest and rescreen); conditions: for Estimated Selectivity Index: retest campaign; for Primary Screening Activity 10.2µM (%): single point, inhibition relative to controls
Protocol: T.b. brucei lister 427 cells were maintained in log phase growth in 25 cm^2 tissue culture flasks (Corning, NY, USA) by sub-culturing at either 24 or 48 hour intervals. Cells were grown in HMI-9 medium, supplemented with 10% fetal calf serum (FCS) and 100 IU/ml penicillin/streptomycin (Invitrogen, Carlsbad, California, USA) with incubation at 5% CO2 at 37°C in humidified conditions. HEK293 cells were maintained in high glucose DMEM with L-glutamine, supplemented with 1× non-essential amino acids (NEAA; Invitrogen, USA) and 1 mM sodium pyruvate. Growth conditions were in 5% CO2 at 37°C, under humidified conditions.
All reagent and cell additions were made with a Multidrop liquid handler (Thermo Scientific, Newington, NH, USA) under sterile conditions. Fifty-five microliters of 2000 cells/mL of T.b. brucei in HMI-9 medium were added to a black, clear-bottomed 384-well lidded plate (BD Biosciences, Franklin Lanes, NJ, USA). Cells were incubated for 24 hours at 37°C in an atmosphere of 5% CO2 before addition of 5 µl of compounds/DMSO for control wells. Compounds suspended in 100% DMSO or 100% DMSO as controls were pre-diluted 1∶21 in high glucose DMEM without FCS by using a Minitrack robotic liquid handler (PerkinElmer, Waltham, MA, USA). Five microliters of diluted sample was added to the plate to give a final DMSO concentration of 0.417% in the assay. Cells were incubated for an additional 48 hours at 37°C. Ten microliters of 70% Alamar Blue (Biosource, Bethesda, MD, USA) was added to each well (diluted in HMI-9 medium supplemented with 10% FCS) to a final concentration of 10% in the assay. The plate was incubated for two hours under the same conditions, then incubated for 22 hours in the dark at room temperature. Wells were read at 535 nm (excitation) and 590 nm (emission) wavelengths on a Victor II Wallac plate reader (PerkinElmer, USA). Specific dilutions are explained further in the primary and retest assay methodology. Reference drugs used in the assay were pentamidine (Sigma-Aldrich, St Louis, MO, USA), diminazene aceturate (Sigma-Aldrich, USA) and puromycin (Calbiochem, San Deigo, CA, USA). Pentamidine is used to treat patients with HAT and diminazene is a veterinary drug used against T.b. brucei to combat infections in cattle.
Primary screening of the library, consisting of 87,296 compounds in two hundred and forty eight 384-well plates, was undertaken in single point against T.b. brucei. Stock solutions consisted of test compound at a concentration of 5 mM in 100% DMSO. One µl of each compound stock solution was diluted by the addition of 40 µl of dilution medium (high glucose DMEM without FCS) by a multidrop liquid handler (Thermo Scientific, USA). A 5 µl sample of this diluted solution was then added to the trypanosome assay plate. The final concentration of test compound in the assay was […] and that of DMSO was 0.42% v/v. Compounds were screened over a total of 11 days, at an average of 80 plates per day, taking into consideration that the assay incubation was 3 days total. Test compounds were added to plates in batches of 20 at two hour intervals, to maintain the timing of additions and reads.
Compound activity was calculated as the percentage inhibition in relation to positive and negative controls. […] These in-plate negative controls were used in an effort to normalise compound activity in relation to any plate to plate variation in the assay signal. A whole 384-well control plate was included in each day's screening, one per 20 compound plates containing half a plate of 2 µM pentamidine for the positive assay control, and half a plate of 0.42% v/v DMSO as a negative control. The positive assay control was used to calculate compound activity for batches of 20 compound plates. As well providing the positive control data, these whole plate controls were used for the calculation of the Z' to measure the reproducibility of the assay.

[2] = system: T.b. brucei; test: Determination of the cidal action of compounds (MIC and parasite counts); conditions: for MIC: Trypanosoma brucei, minimum concentration with plateau of activity (>95%) in Alamar Blue concentration response curve, read-out: minimum inhibitory concentration (MIC); for action cidal or static at the MIC: parasites cleared by 72 hours at MIC; for incubation time at the MIC for complete clearance of T.b. brucei parasites: cell counts at 24, 48 and 72 hours (29 hours from Presto Blue)
From the text: The MIC was extrapolated as the minimum concentration at which there was a plateau of activity in the assay (>95% activity).

[3] = system: T.b. brucei; test: Time to kill assay (Presto Blue); conditions: for IC50: Trypanosoma brucei
Protocol: The starting dose was 40 µM, and the IC50 values were determined from a 16 point dose-response curve. The assay conditions were the same as previously described for the Alamar Blue assay, except that 10 µL of a final 10% concentration of Presto Blue in HMI-9 medium was added as the indicator of viable cells, at various time points. At the first time point, following 20 hours of incubation with compounds, Presto Blue was added to the wells and incubation at 37°C continued. Plates were read every hour and returned to continue incubation at 37°C. This was performed to determine at which time point there was a reproducible signal (Z' of >0.5), using puromycin as a […].

[4] = HEK293 IC50 / T.b. brucei IC50, > if less than 50% activity at 75.8 µM in HEK293
[5] = Trypanosoma brucei, Alamar Blue-based HTS assay format, run with time to kill study, read-out: Activity (IC50 value) AB assay
[6] = Trypanosoma brucei, re-synthesised/re-purchased compounds, three experiments, two replicates each, read-out: Compound activity T.B (IC50)
[7] = Trypanosoma brucei, retest campaign from stock solutions, duplicate, read-out: Retest IC50 T.b.brucei
[8] = re-synthesised/re-purchased compounds, three experiments, two replicates each, read-out: Compound activity T.B (IC50)
[9] = 29 hours after addition of compound, 2 experiments, read-out: Activity (IC50 value) 29 hours
[10] = 48 hours after addition of compound, read-out: Activity (IC50 value) 48 hours
[11] = read-out: Activity (IC50 value) 72 hours, 72 hours after addition of compound
[12] = Trypanosoma brucei, read-out: Activity (IC50 value) AB assay, Alamar Blue-based HTS assay format, run with time to kill study
[13] = Trypanosoma brucei, read-out: Compound activity T.B (IC50), re-synthesised/re-purchased compounds, three experiments, two replicates each
[14] = Trypanosoma brucei, 13 control plates, triplicate dose-response, read-out: IC50 of reference compounds, primary screening campaign
[15] = Trypanosoma brucei, reference compounds, read-out: IC50 against T.b. brucei, retest screening campaign

SMILES | Selectivity Index T.B [1, 4] | IC50 [1, 5] [nM] | IC50 [1, 6] [nM] | IC50 [1, 7] [nM] | IC50 [1, 8] [nM] | Estimated Selectivity Index ([1]; HEK293 IC50 / T.b. brucei IC50) | Primary Screening Activity 10.2µM (%) [1] [%] | MIC [2] [µM] | action cidal or static at the MIC [2] | IC50 [3, 9] [nM] | IC50 [3, 10] [nM] | IC50 [3, 11] [nM] | IC50 [1, 13] [nM] | exposure time at which stable/maximum IC50 value was reached [3] [h] | also measured
CC(C)(C)C(=O)NCCc1csc(-c2cccc(F)c2)n1 [Compound 1] | >96.0 | 1100 ± 65.1 | 790 | 441 | 785 ± 82.9 | 94.6 | 100 | 3.97 (≈ 1.22 µg/mL) | cidal | 898 ± 332 | 691 ± 66.4 | 1030 ± 18.4 |  |  | 
O=C(NCCc1n[nH]c(-c2ccc(F)cc2)n1)c1cccc(F)c1 [Compound 2] |  |  | 4000 ± 55.5 | 1930 |  | 21.6 | 99.5 | 19.8 (≈ 6.5 µg/mL) | cidal | 4840 ± 449 | 3830 ± 873 | 500 ± 43.1 |  |  | IC50 [1, 12]: 4710 ± 272 nM
CCOc1ccc(OCc2ccc(C(=O)N3CCCC(C)C3)cc2)cc1 (centres unmarked) [Compound 3] | >67.1 |  | 1100 | 2560 | 1130 ± 347 | 16.3 | 99 |  |  |  |  |  |  |  | 
Cc1cc(O)nc(-n2nc(C)cc2NC(=O)C2CCCC2)n1 [Compound 4] | 25 and 24.6 |  |  |  | 3080 ± 290 |  |  |  |  |  |  |  | 3100 |  | 
CCS(=O)(=O)N1CCCc2ccc(NS(=O)(=O)c3ccccc3F)cc21 [Compound 5] | >35.9 |  |  |  | 2110 ± 130 |  |  |  |  |  |  |  | 2100 |  | 
CCC(C)NC(=O)c1nc(-c2ccccc2)cnc1N (centres unmarked) [Compound 6] | >65.3 |  | 1200 |  | 1160 ± 304 |  |  | 9.92 (≈ 2.68 µg/mL) | cidal | 3090 ± 1380 | 177 ± 11 | 111 ± 50.2 |  | 48 | IC50 [1, 12]: 160 ± 40.3 nM
O=C(Nc1ccc(Cl)c(-c2nc3ncccc3o2)c1)c1ccco1 [Compound 7] |  | 198 ± 1.28 |  |  | 218 ± 7.14 |  | 100 | 0.99 (≈ 0.336 µg/mL) | cidal | 178 ± 7 | 142 ± 38.7 | 220 ± 17.6 | 220 |  | IC50 ([1]; Trypanosoma brucei, read-out: Retest IC50 T.b.brucei, retest campaign from stock solutions, duplicate): 169 nM; population remaining at the MIC, 24 hours ([2]; 24 hours): 0.41%; population remaining at the MIC, 48 hours ([2]; 48 hours): 0.06%
CCc1ccccc1N=C(NCCN1CCOCC1)NC(=O)c1ccccc1 [Compound 8] | >29.0 |  | 2600 |  | 2610 ± 320 |  |  |  |  |  |  |  |  |  | 
N=C(N)c1ccc(OCCCCCOc2ccc(C(=N)N)cc2)cc1 [Pentamidine, pentamidine, reference compound] |  | 5.81 ± 0.707 |  |  |  |  |  | 0.04 (≈ 0.0136 µg/mL) |  | 9.13 ± 2.76 | 3.41 ± 0.661 | 4.66 ± 0.936 |  | 48 | Selectivity Index T.B [1]: >283; IC50 [1, 14]: 14.7 ± 4.7 nM; IC50 ([1]; Trypanosoma brucei, during rescreening of resynthesized compounds, read-out: Reference Compound Activity T.B (IC50)): 3.52 ± 0.36 nM; IC50 [1, 15]: 7.8 ± 3.6 nM; incubation time at the MIC for complete clearance of T.b. brucei parasites [2]: 72 h
COc1ccc(C[C@H](N)C(=O)N[C@H]2[C@@H](O)[C@H](n3cnc4c(N(C)C)ncnc43)O[C@@H]2CO)cc1 [Puromycin, puromycin, reference compound] |  | 64.1 ± 0.24 |  |  |  | less than 10 |  | 1.15 (≈ 0.542 µg/mL) |  | 152 ± 65.4 | 58.1 ± 10.1 | 68.6 ± 0.283 |  | 48 | Selectivity Index T.B [1]: 8.90; IC50 ([1]; 13 control plates, triplicate dose-response, read-out: IC50 of reference compounds, primary screening campaign): 61.9 ± 6.8 nM; IC50 [1, 14]: 61.9 ± 6.8 nM; IC50 ([1]; Trypanosoma brucei, read-out: Reference Compound Activity T.B (IC50), during rescreening of resynthesized compounds): 58.4 ± 0.769 nM; IC50 [1, 15]: 138 ± 15.7 nM; incubation time at the MIC for complete clearance of T.b. brucei parasites [2]: 24 h
